Assay results taken from patent US8106073B2, “Quinoline derivatives 057” (AstraZeneca AB, priority 2007, dated 2012).
Where two headings read alike, the source gives them in different places.

How the values were obtained:
[1] = target: T1, P2X7 receptor (Homo sapiens, UniProt Q99572); assay: P2X7 assay (bbATP-induced ethidium bromide fluorescence in THP-1 cells); format: cell-based
T1 construct: 200 μl of a suspension of THP-1 cells; endogenous in cells; host or cells: THP-1 cells
T1 sequence (Q99572 1-595): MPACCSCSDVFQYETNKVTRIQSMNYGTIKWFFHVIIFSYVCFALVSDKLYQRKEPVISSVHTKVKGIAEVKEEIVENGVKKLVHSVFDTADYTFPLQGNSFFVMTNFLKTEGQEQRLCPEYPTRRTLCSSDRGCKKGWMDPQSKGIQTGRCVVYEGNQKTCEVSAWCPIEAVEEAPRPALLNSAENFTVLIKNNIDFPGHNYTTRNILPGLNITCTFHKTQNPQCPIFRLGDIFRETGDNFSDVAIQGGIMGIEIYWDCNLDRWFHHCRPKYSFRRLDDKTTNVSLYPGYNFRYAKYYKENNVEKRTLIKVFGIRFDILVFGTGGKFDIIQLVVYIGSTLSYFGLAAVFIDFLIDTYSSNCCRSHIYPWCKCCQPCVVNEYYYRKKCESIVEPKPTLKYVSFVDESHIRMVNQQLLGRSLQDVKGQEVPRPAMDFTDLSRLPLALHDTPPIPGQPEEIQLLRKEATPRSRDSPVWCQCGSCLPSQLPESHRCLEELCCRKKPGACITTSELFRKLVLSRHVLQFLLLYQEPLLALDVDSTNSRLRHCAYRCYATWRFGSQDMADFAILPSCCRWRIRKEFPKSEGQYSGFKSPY
From the text: Certain compounds such as benzoylbenzoyl adenosine triphosphate (bbATP) are known to be agonists of the P2X7 receptor, effecting the formation of pores in the plasma membrane (Drug Development Research (1996), 37(3), p. 126). Consequently, when the receptor is activated using bbATP in the presence of ethidium bromide (a fluorescent DNA probe), an increase in the fluorescence of intracellular DNA-bound ethidium bromide is observed. The increase in fluorescence can be used as a measure of P2X7 receptor activation and therefore to quantify the effect of a compound on the P2X7 receptor.
In this manner, the compound of the invention was tested for antagonist activity at the P2X7 receptor. Thus, the test was performed in 96-well flat bottomed microtitre plates, the wells being filled with 250 μl of test solution comprising 200 μl of a suspension of THP-1 cells (2.5×10^6 cells/ml) containing 10^−4M ethidium bromide, 25 μl of a high potassium buffer solution containing 10^−5M bbATP, and 25 μl of the high potassium buffer solution containing concentrations of test compound typically from 30 μM-0.001 μM. The plate was covered with a plastic sheet and incubated at 37° C. for one hour. The plate was then read in a Perkin-Elmer fluorescent plate reader, excitation 520 nm, emission 595 nm, slit widths: Ex 15 nm, Em 20 nm. […]

[2] = target: T2, hERG (Homo sapiens, UniProt Q12809); assay: hERG binding protocol (radioligand competition, HEK cell membranes expressing hERG); conditions: human, HEK cell membranes expressing hERG, pH 7.4; highest concentration tested
T2 construct: expressed in transfected cells; host or cells: HEK (human embryonic kidney) cells, membranes
T2 sequence (Q12809 whole entry): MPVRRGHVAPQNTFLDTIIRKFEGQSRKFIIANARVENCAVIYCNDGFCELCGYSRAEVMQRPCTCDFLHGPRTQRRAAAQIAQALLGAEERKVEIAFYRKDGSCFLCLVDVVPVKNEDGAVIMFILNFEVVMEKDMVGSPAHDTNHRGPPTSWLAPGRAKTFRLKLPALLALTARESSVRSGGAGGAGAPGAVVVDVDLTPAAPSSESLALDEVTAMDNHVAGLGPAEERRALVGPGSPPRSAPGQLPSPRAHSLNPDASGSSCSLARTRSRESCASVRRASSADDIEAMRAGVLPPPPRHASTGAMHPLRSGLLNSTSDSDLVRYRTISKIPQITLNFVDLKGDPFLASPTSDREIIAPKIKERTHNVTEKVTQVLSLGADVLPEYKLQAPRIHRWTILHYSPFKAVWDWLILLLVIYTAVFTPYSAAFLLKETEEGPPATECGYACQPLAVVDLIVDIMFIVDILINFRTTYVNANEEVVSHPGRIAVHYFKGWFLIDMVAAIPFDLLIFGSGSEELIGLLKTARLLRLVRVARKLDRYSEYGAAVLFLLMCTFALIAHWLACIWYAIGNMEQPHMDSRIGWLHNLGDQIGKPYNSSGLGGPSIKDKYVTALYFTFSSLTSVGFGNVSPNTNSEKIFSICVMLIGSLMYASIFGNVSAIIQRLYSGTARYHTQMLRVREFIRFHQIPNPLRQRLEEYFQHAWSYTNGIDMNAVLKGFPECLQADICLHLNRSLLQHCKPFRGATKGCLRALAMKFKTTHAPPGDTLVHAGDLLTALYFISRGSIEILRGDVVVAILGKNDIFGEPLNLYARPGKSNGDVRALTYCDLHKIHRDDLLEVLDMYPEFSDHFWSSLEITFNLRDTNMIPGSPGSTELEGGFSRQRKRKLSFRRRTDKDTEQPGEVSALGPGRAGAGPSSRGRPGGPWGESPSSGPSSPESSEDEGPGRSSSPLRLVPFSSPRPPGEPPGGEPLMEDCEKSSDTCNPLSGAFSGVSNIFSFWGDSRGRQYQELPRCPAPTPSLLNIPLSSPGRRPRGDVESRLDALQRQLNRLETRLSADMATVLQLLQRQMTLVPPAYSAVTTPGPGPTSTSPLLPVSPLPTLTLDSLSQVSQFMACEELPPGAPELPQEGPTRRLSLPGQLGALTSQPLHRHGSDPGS
Experimental: (§1) The hERG assay was performed according to the procedure described in WO2005/037052. The affinity (pIC50) of compounds for the ion channel subunit encoded by the human ether-a-go-go-related gene (hERG) gene was determined by competition binding of radioligand 3,7-Bis[2-(4-nitro[3,5-^3H]phenyl)ethyl]-3,7-diazabicyclo[3.3.1]nonane to HEK (human embryonic kidney) cell membranes expressing hERG, in a filter wash format.
(§2) Membranes were incubated for 3 hours at room temperature with serial dilutions of the test compounds, radioligand 3,7-Bis[2-(4-nitro[3, 5-3H]phenyl)ethyl]-3,7-diazabicyclo[3.3.1]nonane at 1 nM final concentration, and assay buffer (10 mM HEPES, 130 mM NaCl, 5 mM KCl, 1 mM EGTA, 0.8 mM MgCl2, pH 7.4). The assay was conducted in a final volume of 200 μL, in the presence of 1% (v/v) dimethyl sulphoxide. Non-specific binding was determined by measuring the binding of 3,7-Bis[2-(4-nitro[3,5-^3H]phenyl)ethyl]-3,7-diazabicyclo[3.3.1]nonane in the presence of 10 μM astemizole. During this incubation GF/B filter plates were immersed in coating solution 0.3% (v/v) Polyethylenimine and 0.2% (w/v) BSA). Following incubation assay plates were harvested onto precoated GF/B filter plates using a Tomtec harvester.
(§3) The pIC50, defined as the negative logarithm of the concentration of compound required for 50% reduction in 3,7-Bis[2-(4-nitro[3,5-^3H]phenyl)ethyl]-3,7-diazabicyclo[3.3.1]nonane binding, was determined. A ‘less than’ FIGURE indicates <50% inhibition at the quoted concentration, this being the highest concentration tested.

[3] = target: T3, ion channel subunit encoded by the human ether-a-go-go-related gene (hERG) (Homo sapiens, UniProt Q12809); assay: as above; conditions: for P2X7:hERG Ratio: ratio of P2X7:hERG affinity
T3 construct: expressed in transfected cells; host or cells: HEK (human embryonic kidney) cells, membranes
T3 sequence (Q12809 whole entry): as above
Experimental: as §1, §2, §3

[4] = Bioavailability - Rat PK; format: in vivo, male Sprague Dawley rats; conditions: male, Sprague Dawley, plasma, oral 5 mg/kg vs IV 3 mg/kg
Experimental: Pharmacokinetic parameters and concepts are used in DMPK to describe the fate of a compound in the body. The distribution and excretion of a compound are reflected in the plasma concentration-time profile. By appropriate dosing, sampling and analysis key as parameters (clearance, volume, half-life, bioavailability etc.) can be determined.
Test compounds were typically dosed intravenously to the right lateral tail vein of male Sprague Dawley rats at a dose level of 3 mg/kg (1 ml/kg) in DMA:water (40:60 v/v). Rats were dosed orally at a dose level of 5 mg/kg (2 ml/kg) in 0.5% hydroxypropylmethylcellulose (HPMC, w/v)/0.1% Tween 80 (v/v) in water). […]
To determine the plasma levels of test compound, 50 μl of methanol was added to 50 μl of each of the test samples, whilst 40 μl of methanol was added to the 50 μl aliquots of control plasma containing 10 μl spikes of authentic standard used to create a calibration line and QCs. […] The resultant supernatants were analysed by HPLC-MSMS after an appropriate, selective and sensitive method had been created by optimizing both cone voltage and collision energy.
Pharmacokinetic parameters were derived from concentration-time using non-compartmental analysis in WinNonLin®. Bioavailability was calculated using the following equation F=AUCPO*DoseIV/AUCIV*DosePO.

[5] = tested on: primary rat hepatocytes; assay: In vitro phospholipidosis protocol (DHPE-TRITC accumulation); format: cell-based, Han Wistar rats
Experimental: Assessment of a compounds potential to induce phospholipidosis was determined by an in vitro fluorescent assay which reports the accumulation of phospholipids in primary rat hepatocytes. Hepatocytes were isolated from Han Wistar rats by a 2-stage collagenase digest method. The hepatocytes were then plated on collagen coated 96-well plates in William's E medium. The cells were left to adhere for 1 hour then the media was replaced with a solution of 250 μg.ml^−1 collagen in Hepatozyme cell culture medium.
Cells were then cultured for 48 hours with the medium being changed at 24 hours. At 48 hours post isolation the medium was changed to Hepatozyme supplemented with the fluorescent phospholipid N-(6-tetramethylrhodaminethiocarbamoyl)-1,2-dihexadecanoyl-sn-glycero-3-phosphoethanolamine (DHPE-TRITC) (5 μg.ml^−1). At this time, test compounds were added to the hepatocytes at a range of concentrations in a serial dilution with a final concentration of 0.4% dimethylsulfoxide (used as solvent for test compounds).
The cells were incubated for a further 24 hours and then fixed by addition of a phosphate buffered saline (PBS) solution containing the nuclear stain Hoechst 33342 (final concentration 2 μM) and paraformaldehyde solution (final concentration 4%). The plates were kept at room temperature for 30 minutes then washed three times in PBS solution.
Images of the hepatocytes were then acquired using an automated microscope platform (GE In Cell Analyser 3000). Image analysis algorithms were then used to assess cell viability and the accumulation of the DHPE-TRITC label within viable hepatocytes. The quantified accumulation observed with test compounds was then normalised to a range of 0, representing the accumulation observed in cells exposed to vehicle only, and 1, representing cells exposed to 10 μM amiodarone. The maximum accumulation across the dose response of the test compound, where cell viability is >50%, is reported, as is the dose at which this maximum was observed. The lowest dose that caused >50% cell toxicity is also reported. […]

[6] = Plasma protein binding (equilibrium dialysis); format: in vitro ADME; conditions: pH 7.4; human plasma, 37° C., 5 μM compound; read-out: human plasma protein binding (% bound) (converted)
Experimental: The extent of plasma protein binding was determined via equilibrium dialysis of a compound between human plasma and aqueous buffer at 37° C., and determination of the concentrations of compound in the plasma and buffer by HPLC-MS/MS.
Dialysis cells (molecular weight cut-off 5000) were prepared by rinsing with water followed by soaking in the dialysis buffer for a minimum of 1 hour. The dialysis buffer was isotonic buffered saline pH 7.4. Stock solutions of compound in dimethylsulfoxide were prepared at a concentration of 0.5 mM.
The stock DMSO solution of compound was added to the plasma at a ratio of 10 μl of DMSO to each ml of plasma. This gave a 1% DMSO in plasma solution with each compound at a concentration of 5 μM.
Dialysis cells were then prepared and one half of the cell filled with 750 μl of dialysis buffer and the other half of the cell with 750 μl of plasma solution of compound. […]
The samples were then analysed using HPLC-MS/MS. […]
The concentration of compound in the samples were determined using MassLynx version 4.1 software (produced by Waters/Micromass) that automatically calculated a calibration curve and interpolated the concentration of compound in the analytes. Plasma protein binding was determined from the measured concentration as the percentage of compound bound in plasma (% bound) using the following equation;

IC50 ([1]; 10^-5M bbATP, antagonist activity, read-out: P2X7 pIC50 (converted)): 3.98 nM | IC50 ([1]; bbATP, read-out: P2X7 IC50): ≤ 5 nM | bioavailability [4]: 14% | fraction unbound at 5 µM [6]: 0.3 | melting point: 138 to 140 °C
SMILES: O=C(NCC1(O)CCCCCC1)c1c(Cl)ccc2nc(N3CC[C@H](NCCO)C3)ccc12 [Example 1, 6-Chloro-N-[(1-hydroxycycloheptyl)methyl]-2-{(3S)-3-[(2-hydroxyethyl)amino]-pyrrolidin-1-yl}quinoline-5-carboxamide]
inhibition at 3 h [2]: < 50% | IC50 ([3]; radioligand competition binding): > 100 µM | P2X7:hERG Ratio [3]: >20,000 | P2X7:hERG Ratio ([3]; listed as compound according to the present invention): > 20,000 | maximum accumulation concentration ([5]; dose at which maximum accumulation was observed): 71 µM | minimum toxic concentration ([5]; lowest dose that caused >50% cell toxicity): 198 µM | maximum accumulation (phospholipidosis) ([5]; relative to 10 μM amiodarone control (=1), vehicle = 0, cell viability >50%): 0.9
